In patent US8846909B2, “Bicyclic heteroaryl kinase inhibitors and methods of use” (University of Rochester, priority 2010, dated 2014):

Tests used:
[1] = tested on: in vivo model of HIV-1 infection; conditions: reversing microglial activation, restoring normal synaptic architecture; cited from earlier work
[2] = tested on: primary rat hippocampal neurons and dorsal root ganglion neurons; conditions: cited from earlier work
MLK3 [3] = biological target: T1, MLK3 (Rattus norvegicus, UniProt Q66HA1); conditions: primary rat neurons; cited from earlier work
T1 construct: autophosphorylation of MLK3 in primary rat neurons; endogenous in cells; host or cells: primary rat neurons

[4] = Pharmacokinetic evaluation in mice (plasma and brain AUC); format: in vivo; parameters: unit not given here; conditions: CL57 BL/6 mice, single IV injection 10 mg/kg, brain homogenate
Description: Several compounds disclosed herein were evaluated in a standard murine pharmacokinetic model. […] Three mice in each group were used for blood and brain collection at each time point. […] The brain of each animal was collected after the final blood collection. The whole tissue was harvested, excised and rinsed by saline, dried by filter paper, and then placed into one tube per tissue per animal. All samples were stored at −20° C. until bioanalysis. Compound concentrations in plasma and brain homogenate were determined using a high performance liquid chromatography/mass spectrometry (HPLC/MS/MS) method (Agilent 1100 series HPLC, AB Inc. API4000 triple-quadrupole with an ESI interface and Analyst 1.4 software). Results in the form of area under the time-versus-concentration curve (AUC) are given below in Table 11.

MLK3 [5] = biological target: T2, MLK3 (Homo sapiens, UniProt Q16584); assay: Radiometric filter plate MLK3 assay; format: biochemical; conditions: read-out: MK3 IC50; note: 2 µM cold ATP (Km)
T2 construct: purchased Dundee DU8313
Description: After a twenty minute incubation, the reactions were washed through filter plates and read on a scintillation counter. Results are shown in Table 10 below, in which +++ indicates ≦0.1 μM, ++ indicates >0.1 μM and ≦1 μM, and + indicates >1 μM.

T2 sequence (Q16584 whole entry): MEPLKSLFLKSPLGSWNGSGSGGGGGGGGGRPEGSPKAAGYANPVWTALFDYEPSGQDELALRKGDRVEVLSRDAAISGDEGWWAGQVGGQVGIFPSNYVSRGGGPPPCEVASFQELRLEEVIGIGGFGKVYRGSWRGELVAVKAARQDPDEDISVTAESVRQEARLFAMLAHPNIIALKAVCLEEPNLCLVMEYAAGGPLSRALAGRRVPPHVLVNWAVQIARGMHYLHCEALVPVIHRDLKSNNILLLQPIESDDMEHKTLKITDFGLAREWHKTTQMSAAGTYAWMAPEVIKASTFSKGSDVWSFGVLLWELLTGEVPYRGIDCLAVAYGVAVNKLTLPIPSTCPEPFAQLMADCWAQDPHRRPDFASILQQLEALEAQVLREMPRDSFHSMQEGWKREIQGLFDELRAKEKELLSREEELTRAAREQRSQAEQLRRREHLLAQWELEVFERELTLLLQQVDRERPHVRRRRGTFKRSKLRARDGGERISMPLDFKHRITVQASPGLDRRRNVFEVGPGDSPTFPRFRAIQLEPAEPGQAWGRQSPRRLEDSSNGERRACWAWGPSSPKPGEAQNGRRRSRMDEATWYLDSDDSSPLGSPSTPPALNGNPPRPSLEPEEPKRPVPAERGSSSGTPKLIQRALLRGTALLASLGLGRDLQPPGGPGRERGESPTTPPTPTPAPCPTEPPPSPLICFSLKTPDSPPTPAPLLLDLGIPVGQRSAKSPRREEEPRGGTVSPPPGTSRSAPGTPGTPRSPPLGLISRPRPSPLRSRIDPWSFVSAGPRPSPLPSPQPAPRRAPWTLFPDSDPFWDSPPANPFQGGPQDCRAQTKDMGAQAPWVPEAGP
T1 sequence (Q66HA1 whole entry): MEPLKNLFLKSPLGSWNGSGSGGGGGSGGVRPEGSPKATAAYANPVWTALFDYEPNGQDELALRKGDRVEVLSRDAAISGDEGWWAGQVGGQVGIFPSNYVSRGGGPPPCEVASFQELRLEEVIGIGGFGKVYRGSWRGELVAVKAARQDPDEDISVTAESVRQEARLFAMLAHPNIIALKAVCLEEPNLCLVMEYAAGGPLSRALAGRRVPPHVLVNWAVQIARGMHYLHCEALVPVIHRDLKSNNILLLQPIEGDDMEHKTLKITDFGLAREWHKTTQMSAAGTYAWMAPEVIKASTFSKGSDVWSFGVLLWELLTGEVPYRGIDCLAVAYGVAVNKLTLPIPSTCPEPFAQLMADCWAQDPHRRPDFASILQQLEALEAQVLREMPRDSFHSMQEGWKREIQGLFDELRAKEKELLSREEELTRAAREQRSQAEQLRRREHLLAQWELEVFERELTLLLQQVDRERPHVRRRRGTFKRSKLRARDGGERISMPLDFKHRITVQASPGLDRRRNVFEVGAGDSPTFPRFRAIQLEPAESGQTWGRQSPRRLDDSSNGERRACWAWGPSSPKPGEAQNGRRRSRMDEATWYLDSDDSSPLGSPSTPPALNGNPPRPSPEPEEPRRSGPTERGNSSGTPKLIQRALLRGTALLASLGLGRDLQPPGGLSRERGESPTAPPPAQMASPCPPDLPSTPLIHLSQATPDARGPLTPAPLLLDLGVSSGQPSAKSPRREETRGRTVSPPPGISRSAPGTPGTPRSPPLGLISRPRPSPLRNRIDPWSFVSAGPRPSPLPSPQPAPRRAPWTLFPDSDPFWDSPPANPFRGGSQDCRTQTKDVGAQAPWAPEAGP

Row | Compound | AUC Brain [4] | IC50 (MLK3 [5]) | neuroprotection in in vivo model of HIV-1 infection [1] | protection of neurons from lethal effects of HIV-1 gp120 [2] | Tat and gp120 induced autophosphorylation of MLK3 (MLK3 [3])
1 | CCSCc1ccc2c(c1)c1c3c(c4c5cc(CSCC)ccc5n5c4c1n2[C@H]1C[C@](O)(C(=O)OC)[C@]5(C)O1)CNC3=O [CEP1347] | – | – | neuroprotective | can protect | abolished
2 | Nc1ncc(-c2cnc3[nH]cc(-c4ccc5[nH]ccc5c4)c3c2)cn1 [Example 9, 5-(3-(1H-indol-5-yl)-1H-pyrrolo[2,3-b]pyridin-5-yl)pyrimidin-2-amine] | + (+ indicates ≧500) | < 100 nM | – | – | –

More lines, main results first:

Row | AUC Brain [4] | IC50 (MLK3 [5]) | Compound | neuroprotection in in vivo model of HIV-1 infection [1] | protection of neurons from lethal effects of HIV-1 gp120 [2] | Tat and gp120 induced autophosphorylation of MLK3 (MLK3 [3])
3 | − (− indicates <500) | < 100 nM | Nc1ccc(-c2cnc3[nH]cc(-c4ccc5[nH]ccc5c4)c3c2)cn1 [Example 4, 5-(3-(1H-indol-5-yl)-1H-pyrrolo[2,3-b]pyridin-5-yl)pyridin-2-amine] | – | – | –
4 | − (− indicates <500) | < 100 nM | COc1cc(-c2cnc3[nH]cc(-c4cnc(N)nc4)c3c2)cc(OC)c1OC [Example 17, 5-(5-(3,4,5-trimethoxyphenyl)-1H-pyrrolo[2,3-b]pyridin-3-yl)pyrimidin-2-amine] | – | – | –
5 | − (− indicates <500) | < 100 nM | COc1cc(-c2cnc3[nH]cc(-c4ccc(N)nc4)c3c2)cc(OC)c1OC [Example 18, 5-(5-(3,4,5-trimethoxyphenyl)-1H-pyrrolo[2,3-b]pyridin-3-yl)pyridin-2-amine] | – | – | –
